Experimental findings from US20130040306A1, “BACKSCATTERING INTERFEROMETRIC ANALYSIS OF MEMBRANE MATERIALS” (priority 2011, published 2013) are described below.

Entries after “also recorded” stand apart in the source; their conditions may differ.

The target of data set [1] is T1, PLCδ1 (Homo sapiens, UniProt P51178).
T1 sequence (P51178 1-756): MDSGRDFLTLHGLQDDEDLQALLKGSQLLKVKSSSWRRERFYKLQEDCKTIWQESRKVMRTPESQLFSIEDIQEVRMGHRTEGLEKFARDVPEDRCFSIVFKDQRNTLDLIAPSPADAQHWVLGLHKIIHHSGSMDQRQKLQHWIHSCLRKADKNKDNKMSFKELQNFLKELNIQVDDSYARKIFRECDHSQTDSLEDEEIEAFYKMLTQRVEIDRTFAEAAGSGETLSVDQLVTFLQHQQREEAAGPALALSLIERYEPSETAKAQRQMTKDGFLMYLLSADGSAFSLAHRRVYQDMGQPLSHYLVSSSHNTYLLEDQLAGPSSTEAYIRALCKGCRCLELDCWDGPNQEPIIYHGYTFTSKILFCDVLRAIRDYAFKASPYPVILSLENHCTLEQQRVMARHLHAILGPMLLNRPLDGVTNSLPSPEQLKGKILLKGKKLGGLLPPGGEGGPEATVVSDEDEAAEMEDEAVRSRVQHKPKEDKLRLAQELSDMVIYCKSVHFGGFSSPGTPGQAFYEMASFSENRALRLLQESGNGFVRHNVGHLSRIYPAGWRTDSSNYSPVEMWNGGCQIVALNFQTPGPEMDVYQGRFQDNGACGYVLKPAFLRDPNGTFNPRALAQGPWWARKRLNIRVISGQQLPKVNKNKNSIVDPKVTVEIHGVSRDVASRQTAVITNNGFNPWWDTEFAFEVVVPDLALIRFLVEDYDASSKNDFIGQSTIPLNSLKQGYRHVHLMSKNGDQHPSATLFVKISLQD
The data set can be described thus: BSI small molecule binding (Kd) to PLCδ1 control. To be noted: control protein. The source says:
(§1) For the backscattering interferometry experiments, large-unilamellar lipid vesicles are generated via extrusion for use in interfacial kinetic studies. The composition generally includes 86% mol neutral diluent (36:2 PE or 36:2 PG), 5% mol PI(4,5)P2, and 8% mol 32:0 PC. Following extrusion, bulk lipid concentration is confirmed via quantitative LC/MS. A HeNe laser beam is then directed at a sample in the channel of a microfluidic chip, resulting in an interference fringe pattern that is detected by the CCD camera. This fringe pattern shifts spatially as the refractive index (RI) of the sample changes; these shifts are translated into a numerical change in phase of the corresponding Fourier transformation. The absolute value of the magnitude in phase change corresponds to the change in solvation/hydration of the protein upon binding ligand, and can be used to plot a ligand binding curve. This inventive BSI technique can also accurately and reproducibly measure protein-lipid binding. […]
(§2) BSI was used to measure Kd of two VU-series compounds for albumin in the absence of lipid. […] As another control to confirm that vesicle composition is not disrupted due to small molecule treatment, Kd and Ks are measured for PLCδ1, which binds PIP2 at both its PH and catalytic domains.

Data set [2] concerns the target T2, albumin (Homo sapiens, UniProt P02768). The data set can be described thus: BSI lipid binding (Ks) with albumin after small molecule treatment. To be noted: small molecule treatment vs vehicle.
Excerpt: as §1, with “curve.” for “curve. This inventive BSI technique can also accurately and reproducibly measure protein-lipid binding.”
(§3) BSI can also be used to measure changes in lipid binding affinities due to small molecule treatment. BSI-derived values can be compared to Ks values determined using classic biochemical methods.
as §2

Data set [3] in a line: preliminary DMPK plasma protein studies. Type of data set: in vitro ADME.
Data set [4] concerns the target T1, PLCδ1. Description: BSI lipid binding (Ks) of PLCδ1 after small molecule treatment. To be noted: small molecule treatment vs vehicle.
Excerpt: as §1, §2

Data set [5] deals with T2, albumin. Description: BSI small molecule binding to albumin in the absence of lipid.
Excerpt: as §1, §2

The target of data set [6] is T3, PLD1.d311 (Homo sapiens, UniProt Q13393).
T3 construct: an amino-terminally-truncated and catalytically active construct; made in house; host or cells: SF21 insect cells
T3 sequence (Q13393 312-1074 limits assumed): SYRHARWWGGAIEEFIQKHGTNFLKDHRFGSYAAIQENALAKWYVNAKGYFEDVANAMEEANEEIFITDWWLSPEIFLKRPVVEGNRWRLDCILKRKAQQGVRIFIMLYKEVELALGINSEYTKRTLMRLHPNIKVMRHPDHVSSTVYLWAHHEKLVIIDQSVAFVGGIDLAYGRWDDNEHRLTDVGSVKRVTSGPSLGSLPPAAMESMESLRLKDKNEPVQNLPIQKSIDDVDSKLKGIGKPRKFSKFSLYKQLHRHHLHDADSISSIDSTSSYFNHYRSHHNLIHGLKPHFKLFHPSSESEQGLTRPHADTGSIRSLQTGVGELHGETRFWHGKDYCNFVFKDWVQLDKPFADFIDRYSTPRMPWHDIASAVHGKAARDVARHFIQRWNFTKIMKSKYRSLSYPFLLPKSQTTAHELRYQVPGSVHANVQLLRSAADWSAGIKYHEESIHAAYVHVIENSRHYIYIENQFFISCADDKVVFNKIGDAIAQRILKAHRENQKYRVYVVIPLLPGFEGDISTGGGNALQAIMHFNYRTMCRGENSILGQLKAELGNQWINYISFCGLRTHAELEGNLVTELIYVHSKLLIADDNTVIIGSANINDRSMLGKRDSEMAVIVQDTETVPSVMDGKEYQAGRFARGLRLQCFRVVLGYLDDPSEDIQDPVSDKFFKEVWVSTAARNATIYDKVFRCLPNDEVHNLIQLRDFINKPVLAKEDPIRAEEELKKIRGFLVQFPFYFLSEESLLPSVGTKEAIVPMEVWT
Description: in vitro PLD activity assay (release of tritiated choline headgroup, lipid vesicles). Type of data set: biochemical. To be noted: for IC50: in vitro PLD activity assay. Here is the method: In vitro activity assays can be performed to measure changes in Km, and Vmax due to small molecule inhibition. This reconstitution assay uses large unilamellar vesicles (generated by extrusion of defined % mol amounts of purified lipid species) incubated with purified PLD and measures the release of a tritiated choline headgroup as a readout of catalytic activity.
Concentration response curves were generated in a radioisotopically labelled activity assay for three VU-series compounds and tungstate with N-myr-Arf1 activated PLD1.d311. Ki measurements of these inhibitors were obtained using BSI.

Data set [7] addresses T4, PLD1c.d311 (Homo sapiens, UniProt Q13393).
T4 construct: an amino-terminally-truncated and catalytically active construct; made in house; host or cells: SF21 insect cells
T4 sequence (Q13393 312-1074 limits assumed): T3 sequence (Q13393 312-1074 limits assumed)
Description: BSI interfacial lipid binding affinity (Ks) of PLD after small molecule treatment. To be noted: small molecule treated enzyme.
Excerpt: Eukaryotic PLD is an interfacial enzyme that, in the classic model, binds the lipid surface via interaction with PI(4,5)P2 prior to hydrolyzing substrate. […] In order to study PLD, the interfacial binding affinity must first be measured (Ks), and subsequent studies must saturate lipid binding to force application of Michaelis-Menten kinetics.
as §1, with “transformation.” for “transformation. The absolute value of the magnitude in phase change corresponds to the change in solvation/hydration of the protein upon binding ligand, and can be used to plot a ligand binding curve. This inventive BSI technique can also accurately and reproducibly measure protein-lipid binding.”
as §3

The target in data set [8] is T4, PLD1c.d311. The data set can be described thus: BSI small molecule binding to purified PLD1c.d311 in the absence of lipid. To be noted: for direct binding to purified PLD1c.d311 by BSI: absence of lipid. From the text: Protein constructs that are composed of different domains of the enzyme are thus used to determine the approximate site of small molecule interaction. The bulk of the studies performed thus far use human PLD1c.d311, an amino-terminally-truncated and catalytically active construct that has robust expression in SF21 insect cells, and can be purified to homogeneity over a single affinity chromatography step. This construct does retain a small portion of the pleckstrin homology domain that is necessary for catalytic activity of the enzyme (reason for this is unknown).
Binding studies are performed using backscattering interferometry (BSI), which can be performed on an efficient nanoscale level with a picomolar limit of detection, and can be used to measure Ki and Ks values for inhibitor-treated purified protein.
For the backscattering interferometry experiments, large-unilamellar lipid vesicles are generated via extrusion for use in interfacial kinetic studies. The composition generally includes 86% mol neutral diluent (36:2 PE or 36:2 PG), 5% mol PI(4,5)P2, and 8% mol 32:0 PC. Following extrusion, bulk lipid concentration is confirmed via quantitative LC/MS. A HeNe laser beam is then directed at a sample in the channel of a microfluidic chip, resulting in an interference fringe pattern that is detected by the CCD camera. This fringe pattern shifts spatially as the refractive index (RI) of the sample changes; these shifts are translated into a numerical change in phase of the corresponding Fourier transformation. The absolute value of the magnitude in phase change corresponds to the change in solvation/hydration of the protein upon binding ligand, and can be used to plot a ligand binding curve. This inventive BSI technique can also accurately and reproducibly measure protein-lipid binding. This technique measures small shifts in RI phase (limit of sensitivity is picomolar) and requires only nanomolar concentrations of protein and ligand in a 1 μl volume channel.

T2 sequence (P02768 25-609, species assumed): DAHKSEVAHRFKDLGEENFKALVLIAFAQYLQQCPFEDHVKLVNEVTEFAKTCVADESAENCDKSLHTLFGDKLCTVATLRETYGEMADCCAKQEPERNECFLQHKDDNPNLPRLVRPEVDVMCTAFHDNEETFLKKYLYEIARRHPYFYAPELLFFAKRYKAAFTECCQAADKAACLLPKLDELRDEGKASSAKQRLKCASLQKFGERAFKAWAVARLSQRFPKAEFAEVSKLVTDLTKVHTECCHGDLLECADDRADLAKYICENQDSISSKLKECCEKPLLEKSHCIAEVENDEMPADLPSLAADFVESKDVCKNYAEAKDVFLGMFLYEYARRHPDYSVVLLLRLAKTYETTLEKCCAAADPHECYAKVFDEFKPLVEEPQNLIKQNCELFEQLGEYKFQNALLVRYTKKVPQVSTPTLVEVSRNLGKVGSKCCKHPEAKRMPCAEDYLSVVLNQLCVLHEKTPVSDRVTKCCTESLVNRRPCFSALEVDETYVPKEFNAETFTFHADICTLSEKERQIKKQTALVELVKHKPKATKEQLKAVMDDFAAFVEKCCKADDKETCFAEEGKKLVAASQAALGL

`C[C@@H](CN1CCC(n2c(=O)[nH]c3cc(Br)ccc32)CC1)NC(=O)[C@@H]1C[C@H]1c1ccccc1` [VU0359595]: in data set [1], the “binding to PLCδ1 by BSI” value is reported as “does not bind”. The “Ks compared to vehicle (albumin control)” value in data set [2] is listed as “disrupted compared to vehicle”. The plasma protein bound in data set [3] is listed as 98%. For the same compound, the “Ks of PLCδ1 compared to vehicle” value in data set [4] is recorded as “does not show shifted Ks”. For the same compound, in data set [5], the “binding to albumin by BSI” value is recorded as “bind albumin”.

For `O=C(c1ccc(OCCN2CCCCC2)cc1)c1c(-c2ccc(O)cc2)sc2cc(O)ccc12` [raloxifene], in data set [6], the “PLD inhibition in vitro (in words)” value was “confirmed to be PLD inhibitors in vitro” and the IC50 came out at 10 µM. The “shift of Ks (interfacial lipid binding) of PLD” value in data set [7] is listed as “shifting Ks; also recorded: shifts Ks”. Further, in data set [8], the “direct binding to purified PLD1c.d311 by BSI” value (“direct binding” for short) is recorded as “directly binds the enzyme”. The “direct binding” value in data set [8] (listed as Raloxifene) is “directly binds the enzyme in the absence of lipid”.

For `CC/C(=C(\c1ccccc1)c1ccc(OCCN(C)C)cc1)c1ccccc1` [tamoxifen], in data set [6], the “PLD inhibition in vitro (in words)” value is “confirmed to be PLD inhibitors in vitro” and inhibition was half-maximal at 48 µM (IC50). Besides, the “direct binding” value in data set [8] is listed as “does not bind”. For the same compound, the “mechanism of PLD inhibition” value in data set [8] (concluded from BSI measurements) was “indirectly inhibit PLD activity”.

Turning to `[O]=[W](=[O])([O-])[O-]` [tungstate], the “Ki (BSI) compared with IC50 (activity assay)” value in data set [8] (PLD1.d311, absence of lipid, vs IC50 with N-myr-Arf1 activated PLD1.d311) was no more than 2 fold. Further, the “direct binding” value in data set [8] is recorded as “directly binds the inhibitors in the absence of lipid”.

What is called IC50 is the point on the concentration scale where inhibition reaches its midpoint. Higher therefore signals weaker potency in that assay.
